Experimental data reported in patent US20100120730A1, “6-BENZYL-2,3,4,7-TETRAHYDRO-INDOLO [2,3-C] QUINOLINE COMPOUNDS USEFUL AS PDE5 INHIBITORS” (NYCOMED GmbH, priority 2007, published 2010).
Structures can show the parent of a compound that is named as a salt.

The compounds below were run against T1, human PDE5 (Homo sapiens, UniProt O76074) (assay: Inhibition of PDE5 activity (modified SPA test, human platelet lysate)). Conditions: PDE5-containing human platelet lysate, 0.5 μM cGMP substrate, 37° C.
T1 construct: from tissue; host or cells: human platelets from fresh donor blood (10,000 g supernatant of sonified platelets)
Format: biochemical
Experimental: As a source for human PDE5, platelets were used. For that purpose, 150 ml fresh blood from human donors anticoagulated with citrate [final concentration 0.3% (w/v)] was centrifuged at 200 g for 10 min to obtain the so-called platelet-rich-plasma (PRP) as a supernatant. 1/10 volume of ACD solution (85 mM Na3-citrate, 111 mM D-glucose, 71 mM citric acid, pH 4.4) was added to 9/10 volume of PRP. After centrifugation (1,400 g, 10 min) the cell pellet was resuspended in 3 ml homogenization buffer (NaCl 140 mM, KCl 3.8 mM, EGTA 1 mM, MgCl2 1 mM, Tris-HCl 20 mM, beta-mercaptoethanol 1 mM, pH 8.2) plus protease-inhibitor mix giving rise to the final concentrations of 0.5 mM Pefablock (Roche), 10 μM Leupeptin, 5 μM Trypsininhibitor, 2 mM Benzamidin and 10 μM Pepstatin A. The suspension was sonified and thereafter centrifuged for 15 min at 10,000 g. The resulting supernatant (platelet lysate) was used for enzymatic testings.
PDE5A1 activity is inhibited by the compounds of the invention in a modified SPA (scintillation proximity assay) test, supplied by Amersham Biosciences (see procedural instructions “phosphodiesterase [3H]cAMP SPA enzyme assay, code TRKQ 7090”), carried out in 96-well microtitre plates (MTP's). The test volume is 100 μl and contains 20 mM Tris buffer (pH 7.4), 0.1 mg of BSA (bovine serum albumin)/ml, 5 mM Mg^2+, 1 μM motapizone, 10 nM PDE2 inhibitor BAY-60-7550, 0.5 μM cGMP (including about 50,000 cpm of [3H]cGMP as a tracer), 1 μl of the respective compound dilution in dimethylsulfoxide (DMSO) and sufficient PDE5-containing platelet lysat (10,000×g supernatant, see above) to ensure that 10-20 wt % of the cGMP is converted under the said experimental conditions. […] After a preincubation of 5 min at 37° C., the reaction was started by adding the substrate (cGMP) and the assay was incubated for a further 15 min; after that, it was stopped by adding SPA beads (50 μl). In accordance with the manufacturer's instructions, the SPA beads had previously been resuspended in water, but were then diluted 1:3 (v/v) in water; the diluted solution also contains 3 mM 8-methoxymethyl-3-isobutyl-1-methylxanthine (IBMX) to ensure a complete PDE activity stop. After the beads have been sedimented (>30 min), the MTP's are analyzed in commercially available luminescence detection devices. The corresponding IC50 values of the compounds for the inhibition of PDE activity are determined from the concentration-effect curves by means of non-linear regression.

With COc1ccc(Cc2nc3c(c4c2[nH]c2ccccc24)C(O)CC(C)(C)C3)c(F)c1 (stereo not shown) [Example 65, 6-(2-Fluoro-4-methoxy-benzyl)-3,3-dimethyl-2,3,4,7-tetrahydro-1H-indolo[2,3-c]quinolin-1-ol] as the compound, how does the IC50 read?
Its IC50 is 1.12 nM.

Which IC50 does the source give for O=C1CCCc2nc(Cc3cccc([N+](=O)[O-])c3)c3[nH]c4ccccc4c3c21 [Example 19, 6-(3-Nitro-benzyl)-2,3,4,7-tetrahydro-indolo[2,3-c]quinolin-1-one] here?
Its IC50 is 288 nM.

For CC1(C)Cc2nc(Cc3ccc4c(c3)OCO4)c3[nH]c4ccccc4c3c2C(O)C1 (stereo not shown) [Example 59, 6-Benzo[1,3]dioxol-5-ylmethyl-3,3-dimethyl-2,3,4,7-tetrahydro-1H-indolo[2,3-c]quinolin-1-ol], which IC50 is on record?
The IC50 was 2.69 nM.

For COc1ccc(Cc2nc3c(c4c2[nH]c2ccccc24)C(=O)CC(C)(C)C3)cc1 [Example 1, 6-(4-Methoxy-benzyl)-3,3-dimethyl-2,3,4,7-tetrahydro-indolo[2,3-c]quinolin-1-one], which IC50 is on record?
Its IC50 is 3.02 nM.

With Nc1cccc(Cc2nc3c(c4c2[nH]c2ccccc24)C(=O)CCC3)c1 [Example 43, 6-(3-Amino-benzyl)-2,3,4,7-tetrahydro-indolo[2,3-c]quinolin-1-one] as the compound, how does the IC50 read?
Its IC50 is 11.5 nM.

How did the IC50 turn out when CC1(C)CC(=O)c2c(nc(Cc3ccc4c(c3)OCO4)c3[nH]c4ccccc4c23)C1 [Example 7, 6-Benzo[1,3]dioxol-5-ylmethyl-3,3-dimethyl-2,3,4,7-tetrahydro-indolo[2,3-c]quinolin-1-one, HCl salt] was run?
Its IC50 is 3.89 nM.

How did the IC50 turn out when CC1(C)CC(=O)c2c(nc(Cc3cccc([N+](=O)[O-])c3)c3[nH]c4ccccc4c23)C1 [Example 13, 3,3-Dimethyl-6-(3-nitro-benzyl)-2,3,4,7-tetrahydro-indolo[2,3-c]quinolin-1-one] was run?
Its IC50 is 135 nM.

How did the IC50 turn out when Nc1cccc(Cc2nc3c(c4c2[nH]c2ccccc24)C(O)CCC3)c1 (stereo not shown) [Example 72, 6-(3-Amino-benzyl)-2,3,4,7-tetrahydro-1H-indolo[2,3-c]quinolin-1-ol] was run?
The IC50 was 49 nM.

Which IC50 does the source give for CC(=O)Nc1ccc(Cc2nc3c(c4c2[nH]c2ccccc24)C(=O)CCC3)cc1 [Example 46, N-[4-(1-Oxo-2,3,4,7-tetrahydro-1H-indolo[2,3-c]quinolin-6-ylmethyl)-phenyl]-acetamide] here?
Its IC50 is 67.6 nM.

How did the IC50 turn out when CC1(C)CC(=O)c2c(nc(Cc3ccc(NC(N)=O)cc3)c3[nH]c4ccccc4c23)C1 [Example 75, [4-(3,3-Dimethyl-1-oxo-2,3,4,7-tetrahydro-1H-indolo[2,3-c]quinolin-6-ylmethyl)-phenyl]-urea] was run?
Its IC50 is 10.5 nM.

COc1ccc(Cc2nc3c(c4c2[nH]c2ccccc24)C(O)CC(C)(C)C3)cc1F (stereo not shown) [Example 68, 6-(3-Fluoro-4-methoxy-benzyl)-3,3-dimethyl-2,3,4,7-tetrahydro-1H-indolo[2,3-c]quinolin-1-ol] was tested. Which IC50 did it give?
Its IC50 is 1.58 nM.

For CC1(C)CC(=O)c2c(nc(Cc3ccc(Br)cc3)c3[nH]c4ccccc4c23)C1 [Example 5, 6-(4-Bromo-benzyl)-3,3-dimethyl-2,3,4,7-tetrahydro-indolo[2,3-c]quinolin-1-one, HCl salt], which IC50 is on record?
Its IC50 is 10.7 nM.

Which IC50 does the source give for CCC(=O)Nc1ccc(Cc2nc3c(c4c2[nH]c2ccccc24)C(=O)CC(C)(C)C3)cc1 [Example 45, N-[4-(3,3-Dimethyl-1-oxo-2,3,4,7-tetrahydro-1H-indolo[2,3-c]quinolin-6-ylmethyl)-phenyl]-propionamide] here?
Its IC50 is 34.7 nM.

With Brc1ccc(Cc2nc3c(c4c2[nH]c2ccccc24)CCCC3)cc1 [Example 9, 6-(4-Bromo-benzyl)-2,3,4,7-tetrahydro-1H-indolo[2,3-c]quinoline, HCl salt] as the compound, how does the IC50 read?
Its IC50 is 22.9 nM.

Which IC50 does the source give for COc1ccc(Cc2nc3c(c4c2[nH]c2ccccc24)CCCC3)cc1 [Example 6, 6-(4-Methoxy-benzyl)-2,3,4,7-tetrahydro-1H-indolo[2,3-c]quinoline, HCl salt] here?
Its IC50 is 12.6 nM.

For CC1(C)CC(=O)c2c(nc(Cc3ccc([N+](=O)[O-])cc3)c3[nH]c4ccccc4c23)C1 [Example 8, 3,3-Dimethyl-6-(4-nitro-benzyl)-2,3,4,7-tetrahydro-indolo[2,3-c]quinolin-1-one, HCl salt], which IC50 is on record?
Its IC50 is 81.3 nM.
